We go through 20 compounds from PubChem BioAssay AID192 (DTP/NCI, 2004).

“And” between values parts separate entries of the source, which are not always exact repeats. Identical values can stand only once. Inconclusive results and toxic doses are left out. Square brackets hold non-standard residues; d marks the D form. Peptide text beside a SMILES is read from it. ξ: configuration not given here. ξV = CC(C)C(N)C(=O)O

This experiment concerns BDF1 mice, B16 melanoma ip, median survival T/C. The experiment can be described thus: NCI In Vivo Anticancer Drug Screen. Data for tumor model B16 Melanoma (intraperitoneal) in B6D2F1 (BDF1) mice. The following applies: endpoint: median survival time, higher = longer survival. An outline of the steps:
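The ratio T/C compares compound-treated mice with vehicle-treated controls, using survival or tumor size as the endpoint in a transplantable tumor model.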

[1] abbreviates: dose: 12.5 mg/kg/injection, schedule: Q01DX009 (ip), vehicle: saline.
The mark [2] stands for this setting: dose: 25.0 mg/kg/injection, schedule: Q01DX009 (ip), vehicle: saline.
The mark [3] stands for this setting: dose: 50.0 mg/kg/injection, schedule: Q01DX009 (ip), vehicle: saline.
The mark [4] stands for this setting: dose: 50.0 mg/kg/injection, schedule: Q01DX009 (ip), vehicle: saline with Tween-80.
The mark [5] stands for this setting: dose: 100.0 mg/kg/injection, schedule: Q01DX009 (ip), vehicle: saline with Tween-80.
[6] abbreviates: dose: 12.5 mg/kg/injection, schedule: Q01DX009 (ip), vehicle: saline with Tween-80.
Where [7] appears, read: dose: 25.0 mg/kg/injection, schedule: Q01DX009 (ip), vehicle: saline with Tween-80.
Setting [8] is: dose: 100.0 mg/kg/injection, schedule: Q01DX009 (ip), vehicle: saline.
The mark [9] stands for this setting: dose: 200.0 mg/kg/injection, schedule: Q01DX009 (ip), vehicle: saline.
Where [10] appears, read: dose: 400.0 mg/kg/injection, schedule: Q01DX009 (ip), vehicle: saline.
[11] abbreviates: dose: 100.0 mg/kg/injection, schedule: Q04DX003 (ip), vehicle: saline with Tween-80.

Take `COC(C/C=C\C=C\CC/C=C/CC(C)/C=C/C(=C\C(=O)O)CC(=O)O)/C(C)=C\C=C(/C)C(=O)O` (centres undefined): the T/C by setting is: (dose: 0.05 mg/kg/injection, schedule: Q01DX009 (ip), vehicle: saline) 108 % of control; (dose: 0.1 mg/kg/injection, schedule: Q01DX009 (ip), vehicle: saline) 107 % of control; (dose: 0.2 mg/kg/injection, schedule: Q01DX009 (ip), vehicle: saline) 107 % of control; (dose: 0.4 mg/kg/injection, schedule: Q01DX009 (ip), vehicle: saline) 94 % of control.

Take `COC(=O)C(c1ccccc1)C1CCCCN1` (centres undefined): the T/C is 97 % of control (dose: 3.12 mg/kg/injection, schedule: Q01DX009 (ip), vehicle: saline); 100 % of control (dose: 6.25 mg/kg/injection, schedule: Q01DX009 (ip), vehicle: saline); 88 % of control under setting [1]; 88 % of control under setting [2]; 97 % of control under setting [3].

For the compound `CCOC(=O)c1cnc(SC)nc1Sc1ccc(Cl)cc1`, the T/C was 100 % of control (dose: 100.0 mg/kg/injection, schedule: Q04DX003 (ip), vehicle: Klucel (hydroxypropylcellulose) (HPC)); 99 % of control (dose: 200.0 mg/kg/injection, schedule: Q04DX003 (ip), vehicle: Klucel (hydroxypropylcellulose) (HPC)); 89 % of control (dose: 400.0 mg/kg/injection, schedule: Q04DX003 (ip), vehicle: Klucel (hydroxypropylcellulose) (HPC)).

For the compound `CNC(=S)N/N=C/c1ccc([N+](=O)[O-])s1`, the T/C is, setting by setting: under setting [4], 90 % of control; under setting [5], 92 % of control; (dose: 200.0 mg/kg/injection, schedule: Q01DX009 (ip), vehicle: saline with Tween-80) 92 % of control.

As for `CCN(Cc1ccc(Cl)c(Cl)c1)c1ccc2nc(N)nc(N)c2c1C`, the T/C runs as follows: (dose: 3.12 mg/kg/injection, schedule: Q01DX009 (ip), vehicle: distilled water + Tween-80) 110 % of control; (dose: 3.13 mg/kg/injection, schedule: Q01DX009 (ip), vehicle: Klucel (hydroxypropylcellulose) (HPC)) 89 % of control; (dose: 6.25 mg/kg/injection, schedule: Q01DX009 (ip), vehicle: Klucel (hydroxypropylcellulose) (HPC)) 94 % of control; (dose: 6.25 mg/kg/injection, schedule: Q01DX009 (ip), vehicle: distilled water + Tween-80) 115 % of control; (dose: 12.5 mg/kg/injection, schedule: Q01DX009 (ip), vehicle: distilled water + Tween-80) 122 % of control.

With `CN1C(=O)CC2(CCN(CCCC(=O)c3ccc(F)cc3)CC2)C1=O`, the T/C is, setting by setting: (dose: 6.25 mg/kg/injection, schedule: Q01DX009 (ip), vehicle: saline with Tween-80) 99 % of control; under setting [6], 109 % of control; under setting [7], 104 % of control; under setting [4], 95 % of control.

Turning to `CC(C)CC(Br)C(=O)NC(CC(C)C)C(=O)O` (centres undefined), the T/C was 95 % of control under setting [7]; 100 % of control under setting [4]; 95 % of control and 100 % of control under setting [5]; 108 % of control (dose: 400.0 mg/kg/injection, schedule: Q01DX009 (ip), vehicle: saline with Tween-80).

On to `COCCN1CCC(C)(CO)C1` (centres undefined), for which the T/C was 106 % of control under setting [8], 100 % of control under setting [9] and 93 % of control under setting [10].

On to `C=C(C)C12CC(COC(=O)c3ccccc3)C34OC5(OC1C3C1OC1(CO)C(O)C1(O)C(OC(=O)c3ccccc3)C(C)C(C(C)CCCCCCC5O)C14)O2` (centres undefined), for which the T/C was 93 % of control (dose: 3.8 micrograms/kg/injection, schedule: Q01DX009 (ip), vehicle: saline with Tween-80) and 97 % of control (dose: 7.5 micrograms/kg/injection, schedule: Q01DX009 (ip), vehicle: saline with Tween-80).

Take `O=C(NO)N/N=C/c1ccc(/C=N/NC(=O)NO)cc1`: the T/C by setting is: under setting [11], 100 % of control; (dose: 200.0 mg/kg/injection, schedule: Q04DX003 (ip), vehicle: saline with Tween-80) 102 % of control; (dose: 400.0 mg/kg/injection, schedule: Q04DX003 (ip), vehicle: saline with Tween-80) 90 % of control.

For `O=c1[nH]c2c(ccc3cnccc32)c2c1CCC2`, the T/C (dose: 3.12 mg/kg/injection, schedule: Q01DX009 (ip), vehicle: suspension in saline) was 97 % of control and the T/C (dose: 6.25 mg/kg/injection, schedule: Q01DX009 (ip), vehicle: suspension in saline) was 104 % of control.

With `CCCC1OC(=O)C(C)O1` (centres undefined), the T/C is, setting by setting: (dose: 50.0 mg/kg/injection, schedule: Q01DX009 (ip), vehicle: Klucel (hydroxypropylcellulose) (HPC)) 92 % of control; (dose: 100.0 mg/kg/injection, schedule: Q01DX009 (ip), vehicle: Klucel (hydroxypropylcellulose) (HPC)) 89 % of control.

As for `O=C(CCCCl)CC(O)(C(F)(F)Cl)C(F)(F)Cl`, the T/C under setting [7] is 114 % of control; the T/C (dose: 25.0 mg/kg/injection, schedule: Q04DX003 (ip), vehicle: saline with Tween-80) was 97 % of control; the T/C under setting [4] is 114 % of control; the T/C (dose: 50.0 mg/kg/injection, schedule: Q04DX003 (ip), vehicle: saline with Tween-80) was 102 % of control; the T/C under setting [5] was 117 % of control; the T/C under setting [11] was 105 % of control.

Take `CC(C)C(NC(=O)CN)C(=O)O` (centres undefined) (H-Gly-[ξV]-OH): the T/C is, setting by setting: under setting [8], 102 % of control; (dose: 100.0 mg/kg/injection, schedule: Q04DX003 (ip), vehicle: saline) 102 % of control; under setting [9], 100 % of control; (dose: 200.0 mg/kg/injection, schedule: Q04DX003 (ip), vehicle: saline) 97 % of control; under setting [10], 90 % of control; (dose: 400.0 mg/kg/injection, schedule: Q04DX003 (ip), vehicle: saline) 95 % of control.

Consider `c1ccc(OP(Oc2ccccc2)c2ccccc2)cc1`, for which the T/C by setting is: (dose: 50.0 mg/kg/injection, schedule: Q01DX009 (ip), vehicle: acetone) 113 % of control; (dose: 100.0 mg/kg/injection, schedule: Q01DX009 (ip), vehicle: acetone) 100 % of control; (dose: 200.0 mg/kg/injection, schedule: Q01DX009 (ip), vehicle: acetone) 100 % of control.

Take `COc1ccc(Oc2cc(CC3c4cc(OC)c(OC)cc4CCN3C)c([N+](=O)[O-])cc2OC)cc1OC` (centres undefined): the T/C is 100 % of control under setting [1], 100 % of control under setting [2] and 98 % of control under setting [3].

With `NC(=O)CNC1=C(N2CC2)C(=O)C(NCC(N)=O)=C(N2CC2)C1=O`, the T/C is, setting by setting: (dose: 0.5 mg/kg/injection, schedule: Q01DX009 (ip), vehicle: saline) 96 % of control; (dose: 1.0 mg/kg/injection, schedule: Q01DX009 (ip), vehicle: saline) 115 % of control; (dose: 4.0 mg/kg/injection, schedule: Q01DX009 (ip), vehicle: saline) 124 % of control.

On to `O=NN(CCF)C(=O)NC1CCC(NC(=O)N(CCF)N=O)CC1` (centres undefined), for which the T/C under setting [6] is 166 % of control; the T/C (dose: 16.5 mg/kg/injection, schedule: Q01DX009 (ip), vehicle: saline with Tween-80) was 232 % of control; the T/C (dose: 16.5 mg/kg/injection, schedule: Q01DX009 (ip), vehicle: saline) is 181 % of control; the T/C under setting [7] is 214 % of control and 276 % of control; the T/C under setting [2] is 120 % of control; the T/C (dose: 37.5 mg/kg/injection, schedule: Q01DX009 (ip), vehicle: saline with Tween-80) was 212 % of control.

Regarding `CCC(=O)Nc1cccc(Cl)c1`, the T/C by setting is: (dose: 75.0 mg/kg/injection, schedule: Q04DX003 (ip), vehicle: saline with Tween-80) 110 % of control; (dose: 150.0 mg/kg/injection, schedule: Q04DX003 (ip), vehicle: saline with Tween-80) 97 % of control; (dose: 300.0 mg/kg/injection, schedule: Q04DX003 (ip), vehicle: saline with Tween-80) 100 % of control.

Consider `C=C(C)C(=O)OCC12CCC(C)=CC1OC1C(O)C(OC(=O)CCl)C2(C)C12CO2` (centres undefined), for which the T/C (dose: 0.25 mg/kg/injection, schedule: Q01DX009 (ip), vehicle: water) was 122 % of control; the T/C (dose: 0.5 mg/kg/injection, schedule: Q01DX009 (ip), vehicle: water) is 124 % of control; the T/C (dose: 1.0 mg/kg/injection, schedule: Q01DX009 (ip), vehicle: water) was 152 % of control; the T/C (dose: 2.0 mg/kg/injection, schedule: Q01DX009 (ip), vehicle: water) was 152 % of control.
